Drawing on patent publication US9321764B2, “Dihydro-pyrrolopyridinone inhibitors” (AbbVie Inc., priority 2013, dated 2016), this text covers Ki for 20 compounds.

A value given as a limit tells only on which side of the number the result lay.

Usually Ki stands for the equilibrium dissociation constant of an inhibitor or competing ligand from its target. Read a high Ki as a looser hold on the target.

In assay [1] the target is T1, BRD4 (BDII_E352-M457) (Homo sapiens, UniProt O60885).
T1 construct: proliferation; Protocol; made in house
Kind of assay: TR-FRET bromodomain binding assay, second bromodomain of BRD4. To be noted: His-tagged BD2, 30 nM Alexa647 probe; TR-FRET protocol A-E given per row. The protocol: (§1) A time-resolved fluorescence resonance energy transfer (TR-FRET) assay was used to determine the affinities of compounds of the Examples listed in Table 1 for each bromodomain of BRD4. His-tagged first (BD1: amino acids K57-E168) and second (BD2: amino acids E352-E168) bromodomains of BRD4 were expressed and purified. An Alexa647-labeled BET-inhibitor was used as the fluorescent probe in the assay.
(§2) Compound dilution series were prepared in DMSO via an approximately 3-fold serial dilution from one of the following:
(§3) Assay method D: 2.5 mM-800 nM
For Assay methods A, C, and D: Compounds were then diluted 6:100 in assay buffer (20 mM Sodium Phosphate, pH 6.0, 50 mM NaCl, 1 mM Ethylenediaminetetraacetic acid, 0.01% Triton X-100, 1 mM DL-Dithiothreitol) to yield 3× working solutions. […] Twelve μL of this solution were added to the assay plate to reach a final volume of 18 μL.
TR-FRET data were normalized to the means of 24 no-compound controls (“high”) and 8 controls containing 1 μM un-labeled probe (“low”). Percent inhibition was plotted as a function of compound concentration and the data were fit with the 4 parameter logistic equation to obtain IC50s Inhibition constants (Ki) were calculated from the IC50s, probe Kd and probe concentration. Typical Z′ values were between 0.65 and 0.75.

Assay [2] deals with T2, BRD4 (BDI_K57-E168) (Homo sapiens, UniProt O60885).
T2 construct: BD1: amino acids K57-E168; made in house
Kind of assay: TR-FRET bromodomain binding assay, first bromodomain of BRD4. To be noted: His-tagged BD1, 100 nM Alexa647 probe; TR-FRET protocol A-E given per row. The protocol:
as §1, §2
Assay method A: 250 μM-4.2 nM
Assay method B: 0.47 mM to 7.8 nM
Assay method C: 500 μM-8.5 nM
as §3
Assay method E: 0.047 mM to 0.78 nM or 5-fold serial dilution from Assay method D
For Assay methods A, C, and D: Compounds were then diluted 6:100 in assay buffer (20 mM Sodium Phosphate, pH 6.0, 50 mM NaCl, 1 mM Ethylenediaminetetraacetic acid, 0.01% Triton X-100, 1 mM DL-Dithiothreitol) to yield 3× working solutions. Six microliters (μL) of the working solution was then transferred to white, low-volume assay plates (Costar #3673). A 1.5× assay mixture containing His-tagged bromodomain, Europium-conjugated anti-His antibody (Invitrogen PV5596) and the Alexa-647-conjugated probe molecule was also prepared. Twelve μL of this solution were added to the assay plate to reach a final volume of 18 μL.
For Assay methods B and E: Compound dilutions were added directly into white, low-volume assay plates (Perkin Elmer Proxiplate 384 Plus #6008280) using a Labcyte Echo in conjunction with Labcyte Access and Thermo Multidrop CombinL robotics. Compounds were then suspended in eight microliters (μL) of assay buffer (20 mM Sodium Phosphate, pH 6.0, 50 mM NaCl, 1 mM Ethylenediaminetetraacetic acid disodium salt dihydrate, 0.01% Triton X-100, 1 mM DL-Dithiothreitol) containing His-tagged bromodomain, Europium-conjugated anti-His antibody (Invitrogen PV5596) and Alexa-647-conjugated probe.
The final concentration of 1× assay mixture for assay methods A, B, C, D, and E contains 2% DMSO, 8 nM His-tagged bromodomain, 1 nM Europium-conjugated anti-His-tag antibody and 100 nM or 30 nM probe (for BDI or BDII, respectively) and compound concentration in the range of: 5 μM-85 pM for method A, 9.19 μM 150 pM for method B, 10 μM-169 pM for method C, 50 μM-16 nM for method D, and 0.92 μM-15 pM for method E.
After a one-hour equilibration at room temperature, TR-FRET ratios were determined using an Envision multilabel plate reader (Ex 340, Em 495/520).
TR-FRET data were normalized to the means of 24 no-compound controls (“high”) and 8 controls containing 1 μM un-labeled probe (“low”). Percent inhibition was plotted as a function of compound concentration and the data were fit with the 4 parameter logistic equation to obtain IC50s Inhibition constants (Ki) were calculated from the IC50s, probe Kd and probe concentration. Typical Z′ values were between 0.65 and 0.75. The minimum significant ratio was determined to evaluate assay reproducibility (Eastwood et al., (2006) J Biomol Screen, 11: 253-261). The MSR was determined to be 2.03 for BDI and 1.93 for BDII, and a moving MSR (last six run MSR overtime) for both BDI and BDII was typically <3.
(Time-resolved FRET reads energy transfer from a long-lived donor to a nearby acceptor.)

Regarding `CCS(=O)(=O)c1ccc(Oc2ccncc2)c(-c2cn(C)c3c(=O)[nH]ccc23)c1` [Example 74, 3-[5-(ethylsulfonyl)-2-(pyridin-4-yloxy)phenyl]-1-methyl-1,6-dihydro-7H-pyrrolo[2,3-c]pyridin-7-one], the figures for the Ki in assay [1] and in assay [2] were 388 nM and over 2380 nM, respectively.
Consider `CCS(=O)(=O)c1ccc(Oc2cnc(C)cc2C)c(-c2cn(C)c3c(=O)[nH]ccc23)c1` [Example 75, 3-{2[(4,6-dimethylpyridin-3-yl)oxy]-5-(ethylsulfonyl)phenyl}-1-methyl-1,6-dihydro-7H-pyrrolo[2,3-c]pyridin-7-one], for which the values for the inhibitory constant (Ki) in assay [1] and in assay [2] were 42 nM and 131 nM, respectively.
For the compound `CCS(=O)(=O)c1ccc(Oc2ccc(Cl)c(Cl)c2)c(-c2cn(C)c3c(=O)[nH]ccc23)c1` [Example 76, 3-[2-(3,4-dichlorophenoxy)-5-(ethylsulfonyl)phenyl]-1-methyl-1,6-dihydro-7H-pyrrolo[2,3-c]pyridin-7-one], the inhibition constant (Ki) was 64 nM in assay [1] and 77 nM in assay [2].
In the same order, the values of `CCS(=O)(=O)c1ccc(Oc2ccc(C(F)(F)F)cc2)c(-c2cn(C)c3c(=O)[nH]ccc23)c1` [Example 77, 3-{5-(ethylsulfonyl)-2-[4-(trifluoromethyl)phenoxy]phenyl}-1-methyl-1,6-dihydro-7H-pyrrolo[2,3-c]pyridin-7-one] are 139 nM and 62 nM.
In the same order, the values of `CCc1cc(Oc2ccc(S(=O)(=O)CC)cc2-c2cn(C)c3c(=O)[nH]ccc23)ccc1Cl` [Example 79, 3-[2-(4-chloro-3-ethylphenoxy)-5-(ethylsulfonyl)phenyl]-1-methyl-1,6-dihydro-7H-pyrrolo[2,3-c]pyridin-7-one] are 84 nM and 150 nM.
In the same order, the values of `CCS(=O)(=O)c1ccc(Oc2ccc(C#N)cc2OC)c(-c2cn(C)c3c(=O)[nH]ccc23)c1` [Example 80, 4-[4-(ethylsulfonyl)-2-(1-methyl-7-oxo-6,7-dihydro-1H-pyrrolo[2,3-c]pyridin-3-yl)phenoxy]-3-methoxybenzonitrile] are 53 nM and 56 nM.
For the compound `CCS(=O)(=O)c1ccc(Oc2cccnc2)c(-c2cn(C)c3c(=O)[nH]ccc23)c1` [Example 81, 3-[5-(ethylsulfonyl)-2-(pyridin-3-yloxy)phenyl]-1-methyl-1,6-dihydro-7H-pyrrolo[2,3-c]pyridin-7-one], the values for the inhibitory constant (Ki) in assay [1] and in assay [2] were 100 nM and 81 nM, respectively.
In the same order, the values of `CCS(=O)(=O)c1ccc(Oc2ccc(Cl)cc2Cl)c(-c2cn(C)c3c(=O)[nH]ccc23)c1` [Example 82, 3-[2-(2,4-dichlorophenoxy)-5-(ethylsulfonyl)phenyl]-1-methyl-1,6-dihydro-7H-pyrrolo[2,3-c]pyridin-7-one] are 49 nM and 66 nM.
With `CCS(=O)(=O)c1ccc(Oc2cccc(Cl)c2Cl)c(-c2cn(C)c3c(=O)[nH]ccc23)c1` [Example 84, 3-[2-(2,3-dichlorophenoxy)-5-(ethylsulfonyl)phenyl]-1-methyl-1,6-dihydro-7H-pyrrolo[2,3-c]pyridin-7-one], the inhibition constant (Ki) in assay [1] was found to be 25 nM; in assay [2], 55 nM.
The matching figures for `CCS(=O)(=O)c1ccc(Oc2ccc(OC)cc2Cl)c(-c2cn(C)c3c(=O)[nH]ccc23)c1` [Example 85, 3-[2-(2-chloro-4-methoxyphenoxy)-5-(ethylsulfonyl)phenyl]-1-methyl-1,6-dihydro-7H-pyrrolo[2,3-c]pyridin-7-one]: 17 nM and 44 nM.
The matching figures for `CCS(=O)(=O)c1ccc(Oc2cncc(C)n2)c(-c2cn(C)c3c(=O)[nH]ccc23)c1` [Example 86, 3-{5-(ethylsulfonyl)-2-[(6-methylpyrazin-2-yl)oxy]phenyl}-1-methyl-1,6-dihydro-7H-pyrrolo[2,3-c]pyridin-7-one]: 764 nM and 697 nM.
The matching figures for `CCS(=O)(=O)c1ccc(Oc2cncnc2)c(-c2cn(C)c3c(=O)[nH]ccc23)c1` [Example 88, 3-[5-(ethylsulfonyl)-2-(pyrimidin-5-yloxy)phenyl]-1-methyl-1,6-dihydro-7H-pyrrolo[2,3-c]pyridin-7-one]: 739 nM and 287 nM.
As for `Cn1cc(-c2cc(CS(C)(=O)=O)ccc2Oc2ccc(F)cc2F)c2cc(-c3cc(CS(C)(=O)=O)ccc3Oc3ccc(F)cc3F)[nH]c(=O)c21` [Example 93, 3,5-bis{2-(2,4-difluorophenoxy)-5-[(methylsulfonyl)methyl]phenyl}-1-methyl-1,6-dihydro-7H-pyrrolo[2,3-c]pyridin-7-one], the Ki in assay [1] was determined as 619 nM; in assay [2] it was 484 nM.
Take `Cc1noc(C)c1-c1cc2c(-c3cc(CS(C)(=O)=O)ccc3Oc3ccc(F)cc3F)cn(C)c2c(=O)[nH]1` [Example 94, 3-{2-(2,4-difluorophenoxy)-5-[(methylsulfonyl)methyl]phenyl}-5-(3,5-dimethyl-1,2-oxazol-4-yl)-1-methyl-1,6-dihydro-7H-pyrrolo[2,3-c]pyridin-7-one]: the Ki in assay [1] was found to be 1870 nM; in assay [2], 168 nM.
In the same order, the values of `Cn1cc(-c2c(OCC3CC3)ccc3cc[nH]c23)c2cc[nH]c(=O)c21` [Example 98, 3-[6-(cyclopropylmethoxy)-1H-indol-7-yl]-1-methyl-1,6-dihydro-7H-pyrrolo[2,3-c]pyridin-7-one] are 2030 nM and 992 nM.
In the case of `CCOC(=O)c1cc2c(-c3cn(C)c4c(=O)[nH]ccc34)c(OCC3CC3)ccc2[nH]1` [Example 99, ethyl 5-(cyclopropylmethoxy)-4-(1-methyl-7-oxo-6,7-dihydro-1H-pyrrolo[2,3-c]pyridin-3-yl)-1H-indole-2-carboxylate], the values for the Ki in assay [1] and in assay [2] were 2430 nM and over 2380 nM, respectively.
In the case of `CNC(=O)c1cc2c(-c3cn(C)c4c(=O)[nH]ccc34)c(OCC3CC3)ccc2[nH]1` [Example 107, 5-(cyclopropylmethoxy)-N-methyl-4-(1-methyl-7-oxo-6,7-dihydro-1H-pyrrolo[2,3-c]pyridin-3-yl)-1H-indole-2-carboxamide], the Ki in assay [1] was 407 nM; in assay [2], over 2380 nM.
In the same order, the values of `Cn1cc(-c2cc(CNC3CCNCC3)ccc2Oc2ccc(F)cc2F)c2cc[nH]c(=O)c21` [Example 112, 3-{2-(2,4-difluorophenoxy)-5-[(piperidin-4-ylamino)methyl]phenyl}-1-methyl-1,6-dihydro-7H-pyrrolo[2,3-c]pyridin-7-one] are 1050 nM and 1050 nM.
For the compound `CC(C)CCNCc1ccc(Oc2ccc(F)cc2F)c(-c2cn(C)c3c(=O)[nH]ccc23)c1` [Example 117, 3-[2-(2,4-difluorophenoxy)-5-{[(3-methylbutyl)amino]methyl}phenyl]-1-methyl-1,6-dihydro-7H-pyrrolo[2,3-c]pyridin-7-one], the Ki turned out to be 750 nM in assay [1] and 776 nM in assay [2].
On to `Cc1c[nH]c(=O)c2c1c(-c1cc(S(C)(=O)=O)ccc1Oc1ccc(F)cc1F)cn2C` [Example 123, 3-[2-(2,4-difluorophenoxy)-5-(methylsulfonyl)phenyl]-1,4-dimethyl-1,6-dihydro-7H-pyrrolo[2,3-c]pyridin-7-one], for which the results for the Ki in assay [1] and in assay [2] were 428 nM and 130 nM, respectively.
